This passage reports T/C results from PubChem BioAssay AID276 (DTP/NCI, 2004).

Toxic doses and inconclusive results are not listed.

The assay relates to B6C3F1 mice, Lewis lung carcinoma iv, survival T/C. As to the kind of experiment: NCI In Vivo Anticancer Drug Screen. Data for tumor model Lewis Lung Carcinoma (intravenous) in B6C3F1 mice. Particulars: endpoint: median survival time, schedule: Q01DX009 (ip), higher = longer survival. The method, then:
The antitumor activity of compounds was measured in mice bearing transplantable tumors. Survival or tumor size were measured and the results are expressed as the measurement made in the treated group (T) divided by the measurement made in the vehicle treated control group (C). The tumor model used in this assay is Lewis Lung Carcinoma (intravenous) in B6C3F1 mice

Setting [1] is: dose: 12.5 mg/kg/injection, vehicle: Klucel (hydroxypropylcellulose) (HPC).
Where [2] appears, read: dose: 25.0 mg/kg/injection, vehicle: Klucel (hydroxypropylcellulose) (HPC).
[3] abbreviates: dose: 50.0 mg/kg/injection, vehicle: Klucel (hydroxypropylcellulose) (HPC).
[4] abbreviates: dose: 100.0 mg/kg/injection, vehicle: Klucel (hydroxypropylcellulose) (HPC).
Where [5] appears, read: dose: 12.5 mg/kg/injection, vehicle: saline with Tween-80.
Where [6] appears, read: dose: 25.0 mg/kg/injection, vehicle: saline with Tween-80.
The mark [7] stands for this setting: dose: 50.0 mg/kg/injection, vehicle: saline with Tween-80.
[8] abbreviates: dose: 100.0 mg/kg/injection, vehicle: saline with Tween-80.
The mark [9] stands for this setting: dose: 200.0 mg/kg/injection, vehicle: saline with Tween-80.
Where [10] appears, read: dose: 200.0 mg/kg/injection, vehicle: Klucel (hydroxypropylcellulose) (HPC).
Setting [11] is: dose: 400.0 mg/kg/injection, vehicle: Klucel (hydroxypropylcellulose) (HPC).

In the case of `COc1cc(C2c3cc4c(cc3[C@@H](OC3OC5CO[C@@H](C)OC5C(O)C3O)[C@H]3COC(=O)C23)OCO4)cc(OC)c1OC` (stereo partly drawn), the T/C was 113 % of control (dose: 12.5 mg/kg/injection, vehicle: saline); 121 % of control (dose: 25.0 mg/kg/injection, vehicle: saline); 117 % of control (dose: 50.0 mg/kg/injection, vehicle: saline); 191 % of control (dose: 100.0 mg/kg/injection, vehicle: saline).
Turning to `CCc1ccccc1N1CCN(C(=O)c2cc(OC)c(OC)c(OC)c2)CC1`, the T/C was 106 % of control (dose: 6.25 mg/kg/injection, vehicle: Klucel (hydroxypropylcellulose) (HPC)); 103 % of control under setting [1]; 110 % of control under setting [2]; 110 % of control under setting [3]; 105 % of control under setting [4].
Consider `O=C(O)CCCCCCCC(=O)O`, for which the T/C by setting is: (dose: 12.5 mg/kg/injection, vehicle: distilled water + Tween-80) 100 % of control; (dose: 25.0 mg/kg/injection, vehicle: distilled water + Tween-80) 99 % of control; (dose: 50.0 mg/kg/injection, vehicle: distilled water + Tween-80) 100 % of control; (dose: 100.0 mg/kg/injection, vehicle: distilled water + Tween-80) 98 % of control.
Turning to `C#CCNC1=C(C)C(=O)C2=C(C1=O)[C@H](COC(N)=O)[C@]1(OC)[C@@H]3N[C@@H]3CN21`, the T/C (dose: 6.25 mg/kg/injection, vehicle: distilled water + Tween-80) was 102 % of control.
On to `CC(/C=C/c1ccccc1)=Nc1ccccc1`, for which the T/C is, setting by setting: under setting [5], 109 % of control; under setting [6], 101 % of control; under setting [7], 97 % of control; under setting [8], 99 % of control; under setting [9], 105 % of control.
In the case of `O=C(c1cccnc1)c1cc(-c2ccccn2)c(=O)n2ccccc12`, the T/C under setting [6] is 100 % of control; the T/C under setting [7] was 96 % of control; the T/C under setting [8] is 102 % of control; the T/C under setting [9] was 105 % of control; the T/C (dose: 400.0 mg/kg/injection, vehicle: saline with Tween-80) is 102 % of control.
Consider `COc1cc(Cc2nccc3cc(OC)c(OC)cc23)c(C(C)=O)cc1OC`, for which the T/C runs as follows: under setting [1], 98 % of control; under setting [2], 120 % of control; under setting [3], 106 % of control; under setting [4], 101 % of control.
Regarding `CC1CCC(n2cnc3c(Cl)ncnc32)O1` (stereo not drawn), the T/C by setting is: under setting [1], 91 % of control; under setting [2], 107 % of control; under setting [3], 107 % of control; under setting [4], 108 % of control; under setting [10], 113 % of control; under setting [11], 108 % of control.
For `NC(C(=O)O)c1ccc(CBr)cc1` (stereo not drawn), the T/C is, setting by setting: under setting [5], 97 % of control; under setting [6], 100 % of control; under setting [7], 105 % of control; under setting [8], 93 % of control.
As for `C[C@]12CCC(=O)C=C1CC[C@@H]1[C@@H]2C(=O)C[C@@]2(C)[C@H]1CC[C@]2(O)C(=O)CO`, the T/C runs as follows: under setting [2], 95 % of control; under setting [3], 99 % of control; under setting [4], 98 % of control; under setting [10], 103 % of control; under setting [11], 93 % of control.
In the case of `O=NN(CCCl)C(=O)NC1CCC(CC2CCC(NC(=O)N(CCCl)N=O)CC2)CC1` (stereo not drawn), the T/C is 190 % of control under setting [6] and 165 % of control under setting [7].
For `COc1cc(C2c3cc4c(cc3C(O)C(CO)C2CO)OCO4)cc(OC)c1OC` (stereo not drawn), the T/C reads like this: under setting [1], 102 % of control; under setting [2], 104 % of control; under setting [3], 102 % of control; under setting [4], 113 % of control.
Consider `Nc1ccc(Cn2ccc3c4c(N)nc(N)nc4ccc32)cc1`, for which the T/C is 105 % of control (dose: 1.25 mg/kg/injection, vehicle: saline with Tween-80); 107 % of control (dose: 2.5 mg/kg/injection, vehicle: saline with Tween-80); 107 % of control (dose: 5.0 mg/kg/injection, vehicle: saline with Tween-80); 108 % of control (dose: 10.0 mg/kg/injection, vehicle: saline with Tween-80).
